Experimental data from ChEMBL document CHEMBL4831557, “Parthenolide Derivatives as PKM2 Activators Showing Potential in Colorectal Cancer” (J Med Chem, 2021).

Legend:
U2OS = test: Cytotoxicity against human U2OS cells assessed as reduction in cell viability incubated for 48 hrs by MTT assay; format: functional, cell-based
MDA-MB-231 = test: Cytotoxicity against human MDA-MB-231 cells assessed as reduction in cell viability incubated for 48 hrs by MTT assay; format: functional, cell-based; details: MDA-MB-231, 48 h
SW480 = test: Cytotoxicity against human SW480 cells assessed as reduction in cell viability incubated for 48 hrs by MTT assay; format: functional, cell-based; details: SW480, 48 h
HT-29 = test: Cytotoxicity against human HT-29 cells assessed as reduction in cell viability incubated for 48 hrs by MTT assay; format: functional, cell-based; details: HT-29, 48 h
HepG2 = test: Cytotoxicity against human HepG2 cells assessed as reduction in cell viability incubated for 48 hrs by MTT assay; format: functional, cell-based; details: HepG2, 48 h
A549 = test: cells; details: Homo sapiens, A549, 48 h
HCT-116 = test: Cytotoxicity against human HCT-116 cells assessed as reduction in cell viability incubated for 48 hrs by MTT assay; format: functional, cell-based; details: HCT-116, 48 h

Compound | IC50 (U2OS) [µM] | IC50 (MDA-MB-231) [µM] | IC50 (SW480) [nM] | IC50 (HT-29) [µM] | IC50 (HepG2) [µM] | IC50 (A549) [µM] | IC50 (HCT-116) [µM]
C/C1=C\CC[C@@]2(C)O[C@H]2[C@H]2OC(=O)/C(=C\c3ccc4nc[nH]c(=O)c4c3)[C@@H]2CC1 | 24.6 | 55.1 | 34000 | 28.6 | 86.7 | 33.5 | 32.9
C=C1C(=O)O[C@H]2[C@H]1CC/C(COC(=O)Cc1n[nH]c(=O)c3ccccc13)=C/CC[C@@]1(C)O[C@@H]21 | 8.53 | 5.49 | 2280 | 2.56 | 8.44 | 5.79 | 2.87
C=C1C(=O)O[C@H]2[C@H]1CC/C(COC(=O)c1ccc3nc(C)ccc3c1)=C/CC[C@@]1(C)O[C@@H]21 | 1.68 | 1.29 | 790 | 1.61 | 7.79 | 1.34 | 2.78
C=C1C(=O)O[C@H]2[C@H]1CC/C(C(=O)Oc1ccc3nccc(Cl)c3c1)=C/CC[C@@]1(C)O[C@@H]21 | 2.21 | 2.25 | 590 | 1.22 | 4.03 | 2.74 | 1.29
C=C1C(=O)O[C@H]2[C@H]1CC/C(C(=O)CN1CCCN(C(=O)c3ccc4ccccc4n3)CC1)=C/CC[C@@]1(C)O[C@@H]21 | 10.6 | 7.44 | 3130 | 4.31 | 5 | 9.68 | 4.32
C=C1C(=O)O[C@H]2[C@H]1CC/C(COC(=O)CCc1nc3ccccc3[nH]c1=O)=C/CC[C@@]1(C)O[C@@H]21 | 6.99 | 7.56 | 1740 | 5.66 | 14.2 | 8.12 | 6.13
C=C1C(=O)O[C@H]2[C@H]1CC/C(COC(=O)CCc1n[nH]c(=O)c3ccccc13)=C/CC[C@@]1(C)O[C@@H]21 | 6.03 | 7.92 | 1450 | 4.11 | 7.22 | 13.5 | 4.51
CO[C@@]12[C@H](COC(N)=O)C3=C(C(=O)C(C)=C(N)C3=O)N1C[C@@H]1N[C@@H]12 [MITOMYCIN] | 8.45 | 2.89 | 790 | 0.44 | 2.27 | 2.75 | 0.55
C=C1C(=O)O[C@H]2[C@H]1CC/C(COC(=O)c1n[nH]c(=O)c3ccccc13)=C/CC[C@@]1(C)O[C@@H]21 | 7.81 | 6.26 | 2430 | 6.26 | 9.63 | 4.52 | 6.86
C/C1=C\CC[C@@]2(C)O[C@H]2[C@H]2OC(=O)C(CN3CCN(C(=O)c4ccc5ccccc5n4)CC3)[C@@H]2CC1 (some centres undefined) | 23.5 | 87 | 23100 | 54.4 | 69.5 | 60.1 | 64.3
C/C1=C\CC[C@@]2(C)O[C@H]2[C@H]2OC(=O)/C(=C\c3ccc4ncccc4c3)[C@@H]2CC1 | 2.78 | 12.5 | 2710 | 6.66 | 23.6 | 16.8 | 6.55
C=C1C(=O)O[C@H]2[C@H]1CC/C(COC(=O)c1ccc3cccnc3c1)=C/CC[C@@]1(C)O[C@@H]21 | 1.3 | 1.75 | 330 | 2.8 | 9.84 | 2.95 | 3.13
Cn1c2cc([S+](C)[O-])sc2c2cnn(Cc3cccc(N)c3)c(=O)c21 (centres undefined) | > 100 | > 100 | 93000 | > 100 | > 100 | > 100 | 89.9
C=C1C(=O)O[C@H]2[C@H]1CC/C(C(=O)CN1CCN(C(=O)c3ccc4ccccc4n3)CC1C)=C/CC[C@@]1(C)O[C@@H]21 (some centres undefined) | 21.7 | 8.67 | 8640 | 6.34 | 14 | 14.2 | 6.89
C=C1C(=O)O[C@H]2[C@H]1CC/C(COC(=O)c1ccc3ccccc3c1)=C/CC[C@@]1(C)O[C@@H]21 | 3.58 | 3.34 | 2250 | 2.8 | 8.15 | 3.49 | 3.05
C=C1C(=O)O[C@H]2[C@H]1CC/C(C(=O)CN1CCN(C(=O)c3ccc4ccccc4n3)CC1)=C/CC[C@@]1(C)O[C@@H]21 | 13 | 8.37 | 3300 | 4.83 | 7.75 | 14.8 | 5.27

Compound | IC50 (U2OS) [µM] | IC50 (MDA-MB-231) [µM] | IC50 (SW480) [nM] | IC50 (HT-29) [µM] | IC50 (HepG2) [µM] | IC50 (A549) [µM] | IC50 (HCT-116) [µM]
C=C1C(=O)O[C@H]2[C@H]1CC/C(COC(=O)c1cnnc3ccccc13)=C/CC[C@@]1(C)O[C@@H]21 | 4.01 | 3.68 | 1330 | 4.27 | 12.5 | 2.29 | 3.78
C/C1=C\CC[C@@]2(C)O[C@H]2[C@H]2OC(=O)/C(=C\c3ccc4ncncc4c3)[C@@H]2CC1 | 72 | > 100 | 51600 | > 100 | > 100 | 40.2 | 87.7
C/C1=C\CC[C@@]2(C)O[C@H]2[C@H]2OC(=O)C(CN3CCCN(C(=O)c4ccc5ccccc5n4)CC3)[C@@H]2CC1 (some centres undefined) | 11.1 | 71.7 | 6390 | 39 | 59.6 | 27.3 | 50
C=C1C(=O)O[C@H]2[C@H]1CC/C(COC(=O)c1ccc3nc(O)ccc3c1)=C/CC[C@@]1(C)O[C@@H]21 | 7.62 | 5.1 | 730 | 1.72 | 10.6 | 5.12 | 2.25
C=C1C(=O)O[C@H]2[C@H]1CC[C@@]1(COC(=O)c3ccc4ncccc4c3)O[C@@H]1CC[C@@]1(C)O[C@@H]21 | 6.43 | 6.61 | 2400 | 0.94 | 7.13 | 6.69 | 1.8
C=C1C(=O)O[C@H]2[C@H]1CC/C(COC(=O)c1ccc3ncc(Br)cc3c1)=C/CC[C@@]1(C)O[C@@H]21 | 2.51 | 1.89 | 380 | 0.79 | 4.5 | 0.92 | 1.21
C=C1C(=O)O[C@H]2[C@H]1CC/C(COC(=O)c1ccc3ncncc3c1)=C/CC[C@@]1(C)O[C@@H]21 | 13.9 | 9.01 | 1900 | 5.82 | 11.8 | 17.4 | 6.19
C=C1C(=O)O[C@H]2[C@H]1CC/C(CO)=C\CC[C@@]1(C)O[C@@H]21 | 10.7 | 6.01 | 5870 | 6.95 | 12 | 7.49 | 7.5
C=C1C(=O)O[C@H]2[C@H]1CC[C@]1(C)O[C@@H]1CC[C@@]1(C)O[C@@H]21 | 13 | 15.2 | 4300 | 11.4 | 23.5 | 28.6 | 13.4
C=C1C(=O)O[C@H]2[C@H]1CC/C(COC(=O)c1cnc3ccccc3c1)=C/CC[C@@]1(C)O[C@@H]21 | 2.58 | 2.27 | 330 | 2.43 | 9.53 | 2.45 | 2.7
C=C1C(=O)O[C@H]2[C@H]1CC/C(COC(=O)c1ccc3cnccc3c1)=C/CC[C@@]1(C)O[C@@H]21 | 2.58 | 2.27 | 1330 | 2.43 | 9.52 | 2.45 | 2.7
C=C1C(=O)O[C@H]2[C@H]1CC/C(COC(=O)Cc1ccc3ncccc3c1)=C/CC[C@@]1(C)O[C@@H]21 | 6.62 | 4.13 | 1800 | 1.4 | 5.9 | 2.76 | 1.79
C=C1C(=O)O[C@H]2[C@H]1CC/C(COC(=O)c1cccc3cccnc13)=C/CC[C@@]1(C)O[C@@H]21 | 3.54 | 2.2 | 490 | 2.65 | 8.76 | 2.65 | 4.12
C=C1C(=O)O[C@H]2[C@H]1CC/C(COC(=O)c1ccc3nccnc3c1)=C/CC[C@@]1(C)O[C@@H]21 | 3.18 | 2.97 | 1250 | 2.52 | 6.84 | 2.2 | 2.82
C=C1C(=O)O[C@H]2[C@H]1CC/C(COC(=O)c1ccc3nc(Cl)ccc3c1)=C/CC[C@@]1(C)O[C@@H]21 | 2.46 | 2.69 | 460 | 1.42 | 4.83 | 1.75 | 1.77
C/C1=C\CC[C@@]2(C)O[C@H]2[C@H]2OC(=O)/C(=C\c3ccc4nccnc4c3)[C@@H]2CC1 | 3 | 7.59 | 3510 | 358 | 13.8 | 9.18 | 4.38
